From article PMC6934184, “Selective DNA-PKcs inhibition extends the therapeutic index of localized radiotherapy and chemotherapy” (The Journal of Clinical Investigation, 2019) come the findings set out here.

For the experiment, the target named is T1, DYRK1B (Homo sapiens, UniProt Q9Y463).
T1 construct: purchased Thermo Fisher Scientific (Life Technologies) SelectScreen
The experiment is described as follows: SelectScreen Z'LYTE. It counts as biochemical. The gist of the method:
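Percent values come from Thermo SelectScreen profiling of NU5455, combining activity and binding assays. CSF1R was run in Z'LYTE format at Km app ATP, and CAMK1 in Adapta format with ATP listed at 10.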

For orientation: inhibition means the drop in the measured response relative to a control, in per cent.

T1 sequence (Q9Y463 whole entry): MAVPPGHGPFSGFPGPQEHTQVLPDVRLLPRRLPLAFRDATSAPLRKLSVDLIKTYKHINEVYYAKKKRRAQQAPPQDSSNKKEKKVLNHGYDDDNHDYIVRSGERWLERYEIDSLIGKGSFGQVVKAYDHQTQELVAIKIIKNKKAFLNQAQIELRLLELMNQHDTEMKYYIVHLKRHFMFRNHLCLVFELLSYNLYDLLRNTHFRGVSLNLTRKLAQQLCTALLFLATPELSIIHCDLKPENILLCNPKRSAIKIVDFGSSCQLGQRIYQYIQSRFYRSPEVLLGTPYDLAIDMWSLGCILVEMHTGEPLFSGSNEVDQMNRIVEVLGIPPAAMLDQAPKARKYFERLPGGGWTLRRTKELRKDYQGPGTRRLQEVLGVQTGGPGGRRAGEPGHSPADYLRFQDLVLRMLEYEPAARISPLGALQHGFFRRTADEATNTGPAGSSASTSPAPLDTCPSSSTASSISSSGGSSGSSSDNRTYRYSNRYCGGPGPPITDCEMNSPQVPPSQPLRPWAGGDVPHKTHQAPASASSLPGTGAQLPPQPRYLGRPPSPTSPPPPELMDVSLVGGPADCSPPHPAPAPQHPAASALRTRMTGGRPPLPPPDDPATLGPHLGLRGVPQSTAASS

Consider `CN(C(=O)CN1CCOCC1)c1ccc2sc3c(-c4cccc5c(=O)cc(N6CC7CCC(C6)O7)oc45)cccc3c2c1` [NU5455], for which the inhibition at 1 µM was -1.8%.
